In data set [1] the test system is IMQ-induced psoriasis-like skin inflammation. The data set can be described thus: Mouse model of IMQ-induced psoriasis-like skin inflammation. In kind it is in vivo, BALB/c mice. The conditions noted are these: topical Clobetasol 0.02%. The protocol: All experimental procedures were approved by the Mackay Memorial Hospital Animal Care and Uses Committee and conducted according to national animal welfare regulations. Psoriasis-like skin inflammation was created by treating mouse skin with Imiquimod (IMQ) in accordance with the procedures described by van der Fits et al (J Immunol. (2009), 182, 5836-5845). Accordingly, each BALB/c mice (8 weeks old) received a daily topical dose of 62.5 mg of commercially available IMQ cream (5%) on the shaved back and the right ear for 6 consecutive days; whereas the control mice (normal group) were treated with a control cream. For treatment, 7-mer analogue was mixed with IMQ cream to a concentration 100 μM.
Keratinocyte proliferation was determined by 5-bromo-2′-deoxyuridine (BrdU) incorporation. BrdU (Sigma-Aldrich) was reconstituted in DMSO as a stock solution of 80 mM. 10 μl of BrdU mixed with 90 μl of PBS was intraperitoneally injected into each mouse for 24 hr prior to euthanasia. Back skin was fixed overnight in 4% paraformaldehyde and embedded in paraffin for immunohistochemistry.
In this example, the efficacy of the present synthetic peptides of Example 1 on IMQ-induced psoriasis-like skin inflammation was investigated. To this purpose, animals (8-week-old mice) were given a daily topical dose of IMQ cream on the shaved back for six consecutive days, so as to induce psoriasis-like skin inflammation and desquamation (FIG. 1; left panel).
Psoriasis is a disease resulted from abnormal keratinocyte proliferation, thus the effects of the present synthetic peptides on the proliferation of keratinocytes were also monitored in accordance with procedures described in the section of “Materials and Methods”. Results are illustrated in FIG. 2.

Data set [2] concerns Raw264.7 macrophage cells. The data set is described as follows: in vitro. The data set is classed as cell-based, murine. The note with it: Example 1 results.
A further data set is described as follows: in vitro. The data set is classed as cell-based, murine. The note with it: mouse.

“Also recorded” adds a separate entry of the source.

Consider `C[C@H]1C[C@H]2[C@@H]3CCC4=CC(=O)C=C[C@]4(C)[C@@]3(F)[C@@H](O)C[C@]2(C)[C@@]1(O)C(=O)CCl` [Clobetasol, reference compound], for which the desquamation formation entry in data set [1] (FIG. 1) is “ameliorated desquamation formation”. Besides, the skin atrophy entry in data set [1] (entire back of test animals) was “caused skin atrophy”.
One may read the viability as a read-out of living cells in per cent, often relative to untreated cells. For `CC(=O)N[C@@H](CC(=O)O)C(=O)N[C@H](C(=O)N[C@@H](Cc1ccccc1)C(=O)N[C@@H](CCCNC(=N)N)C(=O)N[C@H](C(=O)N[C@@H](CCCNC(=N)N)C(=O)N[C@H](C(N)=O)[C@@H](C)O)C(C)C)C(C)C` [7-mer VFT, NH2-Asp-Val-Phe-Arg-Val-Arg-Thr-COOH], in data set [2], the “bioactivity / inhibitory activity relative to 7-mer (in words)” value is given as “could sustain 7-mer bioactivity, only partly; also recorded: relatively the same bioactivity that is similar to the 7-mer”. Further, in “in vitro” (Raw264.7 cell viability), the viability at 24 h, 20 μM came out at 71.1 ± 2.48%.
Consider `CC(=O)N[C@@H](CC(=O)O)C(=O)N[C@@H](CC(C)C)C(=O)N[C@@H](Cc1ccc(O)cc1)C(=O)N[C@H](CCCNC(=N)N)C(=O)N[C@H](C(=O)N[C@@H](CCCNC(=N)N)C(=O)N[C@@H](CO)C(N)=O)C(C)C` [7-mer DR, NH2-Asp-Leu-Tyr-(D-Arg)-Val-Arg-Ser-COOH], for which, in data set [2], the “bioactivity / inhibitory activity relative to 7-mer (in words)” value is listed as “lose its biological activity”. Moreover, the viability at 24 h, 20 μM in the data set “in vitro” (Rar264.7 cell viability) was found to be 100 ± 2.58%.
`CSCC[C@H](NC(=O)[C@H](CCCNC(=N)N)NC(=O)[C@H](Cc1ccc(O)cc1)NC(=O)[C@H](CC(C)C)NC(=O)[C@H](CC(=O)O)NC(C)=O)C(=O)N[C@@H](CCCCN)C(=O)N[C@@H](CO)C(N)=O` [7-mer MK, NH2-Asp-Leu-Tyr-Arg-Met-Lys-Ser-COOH]: the “bioactivity / inhibitory activity relative to 7-mer (in words)” value in data set [2] is given as “could sustain 7-mer bioactivity, only partly”. Also, the viability at 24 h, 20 μM in “in vitro” (Raw264.7 cell viability) is 81.4 ± 0.64%.
Consider `CC(=O)N[C@@H](CC(=O)O)C(=O)N[C@@H](CC(C)C)C(=O)N[C@H](Cc1ccc(O)cc1)C(=O)N[C@@H](CCCNC(=N)N)C(=O)N[C@H](C(=O)N[C@@H](CCCNC(=N)N)C(=O)N[C@@H](CO)C(N)=O)C(C)C` [7-mer DY, NH2-Asp-Leu-(D-Tyr)-Arg-Val-Arg-Ser-COOH], for which the “bioactivity / inhibitory activity relative to 7-mer (in words)” value in data set [2] is reported as “lose its biological activity”. For the same compound, the viability at 24 h, 20 μM in the data set “in vitro” (Rar264.7 cell viability) amounted to 107.5 ± 0.63%.

For the origin of these results see patent publication US10463710B2, “Short synthetic peptide for the treatment and/or prophylaxis of autoimmune and inflammatory disorders” (MacKay Memorial Hospital, priority 2015, dated 2019).
